Experiments:
Hek293T = assay: Cytotoxicity in Hek293T, CellTiterGlo; format: cell-based; settings: 24 h
Description: (§1) For examination of cytotoxicity in these cancer cell lines the commercial available CellTiterGlo® Reagent (Promega, USA) was used according to the manufactor. Compounds were applied to Hek293T (denoted (1)) or HepG2 (denoted (2)), cultured in Dulbecco's Modified Eagles Medium, supplemented with 10% fetal calf serum and 1% penicillin/streptomycin. Cells were grown in T75 flasks at 37° C., 5% CO2 and trypsinized when 60-80% confluent by adding 2 ml of 0.25% Trypsin-EDTA solution. Cells were then re-suspended into culture medium yielding approx. 4000 cells (1) or 4500 cells (2), suspended in 30 microl medium. 48 h after cell seeding, compounds were added to yield the desired final concentrations. 24 h after compound addition cytotoxicity was evaluated. For this purpose the media was removed and CellTiterGlo® was added according to the manufactors manual. In this assay the luciferase emission readout is directly correlated with the cellular amount of ATP, low luciferase emission thus is reflecting cytotoxicity of a compound. For the evaluation of the IC50 the compound was applied in increasing concentrations yielding final concentrations per well of 5 nM-100 microM.

HepG2 = assay: Cytotoxicity in HepG2, CellTiterGlo; format: cell-based; settings: 24 h
Description: as §1

| Compound | Normalized toxicity values (Hek293T) (Hek293T; 0.005 microM) | Normalized toxicity values (Hek293T) (Hek293T; 0.015 microM) | Normalized toxicity values (Hek293T) (Hek293T; 0.046 microM) | Normalized toxicity values (Hek293T) (Hek293T; 0.137 microM) | Normalized toxicity values (Hek293T) (Hek293T; 0.412 microM) | Normalized toxicity values (Hek293T) (Hek293T; 1.235 microM) | Normalized toxicity values (Hek293T) (Hek293T; 3.704 microM) | Normalized toxicity values (Hek293T) (Hek293T; 11.111 microM) | Normalized toxicity values (Hek293T) (Hek293T; 33.333 microM) | Normalized toxicity values (Hek293T) (Hek293T; 100.000 microM) | Normalized toxicity values (HepG2) (HepG2; 0.005 microM) | Normalized toxicity values (HepG2) (HepG2; 0.015 microM) | Normalized toxicity values (HepG2) (HepG2; 0.046 microM) | Normalized toxicity values (HepG2) (HepG2; 0.137 microM) | Normalized toxicity values (HepG2) (HepG2; 0.412 microM) | Normalized toxicity values (HepG2) (HepG2; 1.235 microM) | Normalized toxicity values (HepG2) (HepG2; 3.704 microM) | Normalized toxicity values (HepG2) (HepG2; 11.111 microM) | Normalized toxicity values (HepG2) (HepG2; 33.333 microM) | Normalized toxicity values (HepG2) (HepG2; 100.000 microM) |
| --- | --- | --- | --- | --- | --- | --- | --- | --- | --- | --- | --- | --- | --- | --- | --- | --- | --- | --- | --- | --- |
| CCOC(=O)C1=C(c2ccccc2)c2c(n(-c3ccccc3)c(=O)n3c(-c4cccc(OC)c4)nnc23)NC1C (stereo not drawn) [Example 16, 3-(3-Methoxy-phenyl)-7-methyl-4-oxo-5,9-diphenyl-4,5,6,7-tetrahydro-1,2,3a,5,6-pentaaza-cyclopenta[a]naphthalene-8-carboxylic acid ethyl ester] | 1.0215 | 0.8660 | 0.8370 | 0.8375 | 0.8593 | 0.8530 | 0.8778 | 0.9213 | 0.9450 | 0.9233 | 1.0275 | 0.9130 | 0.9210 | 0.9210 | 0.9183 | 0.9173 | 1.0303 | 1.1325 | 1.2425 | 1.1200 |
| CCOC(=O)C1=C(c2ccccc2)c2c(n(-c3ccccc3)c(=O)n3c(-c4ccc(OC)cc4)nnc23)NC1C (stereo not drawn) [Example 18] | 1.1075 | 1.0110 | 1.0523 | 1.0088 | 1.0313 | 1.0733 | 1.1200 | 1.0825 | 1.1175 | 0.9883 | 1.1400 | 1.0110 | 1.0350 | 0.9173 | 0.9185 | 0.9953 | 0.9855 | 1.0800 | 1.1125 | 1.1375 |
| CCOC(=O)C1=C(C)Nc2c(c3nnc(-c4cccc(OC)c4)n3c(=O)n2-c2ccccc2)C1c1ccccc1 (stereo not drawn) [Example 15, 3-(3-Methoxy-phenyl)-7-methyl-4-oxo-5,9-diphenyl-4,5,6,9-tetrahydro-1,2,3a,5,6-pentaaza-cyclopenta[a]naphthalene-8-carboxylic acid ethyl ester] | 1.1205 | 1.0500 | 1.2200 | 0.9283 | 0.9603 | 0.8915 | 1.0113 | 1.1550 | 1.0515 | 1.4175 | 1.0700 | 1.0465 | 1.1350 | 0.9913 | 1.0390 | 0.9878 | 1.1575 | 1.1825 | 1.2000 | 1.5075 |

Reference: patent US8629272B2, “Tricyclic pyrimidine derivatives as wnt antagonists” (Deutsches Krebsforschungszentrum, priority 2009, dated 2014)
